From ChEMBL document CHEMBL3714722, “Aryl, Pyrimidyl Compounds, Pharmaceutical Compositions Comprising them, Their Use as Antimicrobial Agents” (2008)

How the values were obtained:
Vero [1] = assay: Growth inhibition of African green monkey Vero cells up to 250 ug/ml; format: cell-based; conditions: chlorocebus sabaeus
Vero [2] = assay: Cytotoxic activity against African green monkey Vero cells up to 250 ug/ml; format: cell-based; conditions: chlorocebus sabaeus
Thymidylate kinase = biological target: T1, Thymidylate kinase (Mycobacterium tuberculosis, UniProt P9WKE1); assay: Inhibition of Mycobacterium tuberculosis TMPK using dTMP substrate and NADH by pyruvate kinase/lactate dehydrogenase coupling system based spectrophotometric assay
T1 sequence (P9WKE1 whole entry): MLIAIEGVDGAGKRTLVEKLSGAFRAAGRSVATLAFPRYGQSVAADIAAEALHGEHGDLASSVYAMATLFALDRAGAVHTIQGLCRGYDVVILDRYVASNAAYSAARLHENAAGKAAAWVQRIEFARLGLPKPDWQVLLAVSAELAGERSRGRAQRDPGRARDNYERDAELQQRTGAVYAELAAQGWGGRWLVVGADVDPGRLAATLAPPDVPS

SMILES: Cc1cn(Cc2ccc(CCCCCC(=O)O)cc2)c(=O)[nH]c1=O
- Activity (Vero [1]): Non-toxic
- Activity (Vero [2]): Non-toxic

SMILES: COC(=O)CCCC#Cc1ccc(Cn2cc(C)c(=O)[nH]c2=O)cc1
- Ki (Thymidylate kinase): Not Active
